Laboratory results as given in ChEMBL document CHEMBL1201862, “PubChem BioAssay data set” (2004).
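96-well plates; 48 h exposure; 5 concentrations. Endpoints by linear interpolation between flanking doses. Not reached: highest tested concentration assigned. GI50 marks 50% less growth.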 Active and inactive are the calls of the source. Cut-off read from the data, not from the text of the source: active = GI50 up to about 1.1 µM and inactive = higher.

What was measured:
Assay in all cases: NCI-60 cell line screen, 48 h
ACHN = system: ACHN
CCRF-CEM = system: CCRF-CEM
COLO 205 = system: COLO 205
DU-145 = system: DU-145
EKVX = system: EKVX
MCF7 = system: MCF7
MDA-MB-435 = system: MDA-MB-435
NCI-H226 = system: NCI-H226
NCI/ADR-RES = system: NCI/ADR-RES
OVCAR-5 = system: OVCAR-5
SK-MEL-2 = system: SK-MEL-2
SK-OV-3 = system: SK-OV-3
SN12C = system: SN12C
SNB-19 = system: SNB-19
SR = system: SR
SW-620 = system: SW-620
T47D = system: T47D
UO-31 = system: UO-31
HL-60 = system: HL-60
RPMI-8226 = system: RPMI-8226

Measured: GI50

Cc1cc(=O)nc(S(=O)(=O)NC(=O)Nc2cccc(Cl)c2)[nH]1
inactive: ACHN > 100 µM | CCRF-CEM 64.4 µM | COLO 205 > 100 µM | DU-145 > 100 µM | EKVX > 100 µM | MCF7 > 100 µM | MDA-MB-435 > 33.5 µM | NCI-H226 > 100 µM | NCI/ADR-RES > 100 µM | OVCAR-5 > 100 µM | SK-MEL-2 > 100 µM | SK-OV-3 > 100 µM | SN12C > 100 µM | SNB-19 > 100 µM | SR > 100 µM | SW-620 > 100 µM | T47D > 88.5 µM | UO-31 3.43 µM

N#C/C(N)=C(C#N)/N=C/N
inactive: ACHN > 100 µM | CCRF-CEM > 100 µM | COLO 205 > 100 µM | DU-145 > 100 µM | EKVX > 100 µM | HL-60 > 100 µM | MCF7 > 100 µM | MDA-MB-435 > 100 µM | NCI/ADR-RES > 100 µM | OVCAR-5 > 100 µM | RPMI-8226 > 100 µM | SK-MEL-2 > 100 µM | SK-OV-3 > 100 µM | SN12C > 100 µM | SR > 100 µM | SW-620 > 100 µM | T47D > 100 µM | UO-31 58.6 µM

CC(C)CCCC(=O)CCCCCCC(=O)CCN(O)C(=O)C(N)CO (stereo not given)
inactive: ACHN 16.1 µM | CCRF-CEM 4.62 µM | COLO 205 23.7 µM | DU-145 18.3 µM | EKVX 10.6 µM | HL-60 20 µM | MCF7 19.8 µM | MDA-MB-435 25.8 µM | NCI-H226 14 µM | NCI/ADR-RES 16.1 µM | OVCAR-5 19.8 µM | RPMI-8226 21.7 µM | SK-MEL-2 17.1 µM | SK-OV-3 19.1 µM | SN12C 16.9 µM | SNB-19 22.5 µM | SW-620 30.3 µM | T47D 13.8 µM | UO-31 12.2 µM

COC(=O)/C=C/c1cc2c(cc1-c1c(C(=O)O)cc(OC)c(OC)c1OC)OCO2
inactive: ACHN > 10 µM | CCRF-CEM > 10 µM | COLO 205 > 10 µM | DU-145 > 10 µM | HL-60 > 10 µM | MCF7 > 10 µM | MDA-MB-435 > 10 µM | NCI/ADR-RES > 10 µM | RPMI-8226 > 10 µM | SK-OV-3 > 10 µM | SN12C > 10 µM | SNB-19 > 10 µM | SR > 10 µM | SW-620 > 10 µM | T47D > 10 µM
